Test results reported in patent US7846944B2, “Pyrazolo-pyridinone compounds and methods of use thereof” (Amgen Inc., priority 2007, dated 2010).
pIC50: −log10 of the molar value. Where two headings read alike, the source gives them in different places.

What was measured:
[1] = biological target: recombinant human p38α (Homo sapiens, UniProt Q16539); experiment: Purified and activated recombinant human p38α HTRF kinase assay; assay type: biochemical; details: 1 nM p38α, 50 μM ATP, GST-ATF2 substrate, read-out: p38a IC50
Description: Purified and Activated Recombinant Human p38α Assay
• Kinase Reaction Buffer: Kinase reaction buffer for p38α HTRF assays consists of 50 mM Tris-pH 7.5, 5 mM MgCl2, 0.1 mg/mL BSA, 100 μM Na3VO4 and 0.5 mM DTT. • HTRF Detection Buffer: HTRF detection buffer contains 100 mM HEPES-pH 7.5, 100 mM NaCl, 0.1% BSA, 0.05% Tween-20, and 10 mM EDTA. • Serial Dilution of Compounds: Compounds were dissolved in 100% DMSO and serially diluted (3 fold, 10 point) in a polypropylene 96-well microtiter plate (drug plate). The final starting concentration of compounds in the p38α enzymatic assays was 1 μM. Columns 6 and 12 (HI controls and LO controls respectively) in the drug plate were reserved as controls and contained only DMSO. • Kinase Reaction The p38α kinase reactions were carried out in a polypropylene 96-well black round bottom assay plate in total volume of 30 μL kinase reaction buffer. Appropriate concentration of purified and activated enzyme (recombinant human) was mixed with indicated concentration of ATP and 100 nM GST-ATF2-Avitag, in the presence or absence (HI control) of Compound. See table below for actual concentrations. In the absence of substrate, the background was measured as LO control. The reaction was allowed to incubate for 1 hour at RT. • Assay Reagent Concentrations: The final reagent concentrations were 1 nM p38α and 50 μM ATP. […] After 60 minutes incubation at room temperature, the assay plate was read in a Discovery Plate Reader. The wells were excited with coherent 320 nm light and the ratio of delayed ([…] post excitation) emissions at […] (native europium fluorescence) and 665 nm (europium fluorescence transferred to allophycocyanin—an index of substrate phosphorylation) was determined (Park et al, 1999). • Data Analysis: The proportion of substrate phosphorylated in the kinase reaction in the presence of compound compared with that phosphorylated in the presence of DMSO vehicle alone (HI control) was calculated using the formula: % control (POC)=(compound−average LO)/(average HI−average LO)*100. Data (consisting of POC and inhibitor concentration in μM) was fitted to a 4-parameter equation (y=A+((B−A)/(1+((x/C)^D))), where A is the minimum y (POC) value, B is the maximum y (POC), C is the x (compound concentration) at the point of inflection and D is the slope factor, using a Levenburg-Marquardt non-linear regression algorithm.
The inhibition constant (Ki) of the inhibitor was estimated from the IC50 (compound concentration at the point of inflection C) using the Cheng-Prussof equation: Ki=IC50/(1+S/Km), where S is the ATP substrate concentration, and Km is the Michaelis constant for ATP as determined experimentally. All results were expressed as the mean±the standard error of the mean. Data acquisition and non-linear regression algorithms were performed using Activity Base v5.2 and XL-fit software v4.1 respectively. All data was archived using Activity Base v5.2 software.

[2] = test system: secreted IL-8 by whole blood activated with TNF-α; experiment: Inhibition of TNF-α induced IL-8 in 50% human whole blood; assay type: cell-based; details: TNF-α (1 nM) induced IL-8, 50% human whole blood, read-out: WB TNF/IL8 IC50
Description: Inhibition of TNF-α Induced IL-8 in 50% Human Whole Blood
Test compounds were evaluated in vitro for the ability to inhibit the production of secreted IL-8 by whole blood activated with TNF-α. Fresh human whole blood was obtained from healthy, non-medicated volunteers in sodium heparin tubes.
Compound Dilution—Assay Procedure
100 ul heparinized whole blood is plated into wells of 96 well flat bottom plates. 50 ul of either 4× compound or DMSO control (Final DMSO concentration is 0.1%) are added to the appropriate wells. Plates are incubated for 1 hour at 37 degrees Celsius. 50 ul of 4×TNF-α ([…], for a final concentration of 1 nM) or control (media alone) is added to the appropriate wells (Total volume=200 ul). Plates are incubated overnight (16-18 hours). 100 ul of supernatant is collected and stored in 96-well round bottom polypropylene plates at −80 degrees Celsius or assayed immediately for IL-8.
Cytokines are measured on antibody (Ab) sandwich ECL based 96-well detection plates. 20 ul of supernatant are added to plate and plate is sealed and shaken at RT for 1 hour. 130 ul of detection Ab cocktail is added and plates are sealed and shaken for 1 hour in the dark at RT. Plates are read on MSD Sector HTS instrument. Data are analyzed and IC50 values generated using Activity Base and XI-fit programs.

[3] = test system: TNF-α secretion by LPS-treated THP1 cells; experiment: Lipopolysaccharide-activated THP1 cell TNF production assay; assay type: cell-based; details: Homo sapiens, THP-1; LPS, 3 hours, THP1 cells; read-out: IC50 in the THP-1 cellular TNF production assay
Description: Lipopolysaccharide-Activated THP1 Cell TNF Production Assay
THP1 cells were resuspended in fresh THP1 media (RPMI 1640, 10% heat-inactivated FBS, 1×PGS, 1×NEAA, plus 30 μM βME) at a concentration of 1.5×10^6 cells per mL. One hundred microliters of cells per well were plated in a polystyrene 96-well tissue culture plate. 1.5 micrograms per mL of bacterial LPS was prepared in THP1 media and transferred to the first 11 columns of a 96-well polypropylene plate. Column 12 contained only THP1 media for the LO control. Compounds were dissolved in 100% DMSO and serially diluted 3 fold in a polypropylene 96-well microtiter plate (drug plate). Columns 6 and 12 were reserved as controls (HI controls and LO controls respectively) and contained only DMSO. 10 μL of LPS followed by one microliter of inhibitor compound from the drug plate was transferred to the cell plate. The treated cells were induced to synthesize and secrete TNF-α in a 37° C. humidified incubator with 5% CO2 for 3 hours. Fifty microliters of conditioned media was transferred to a 96-well MULTI-ARRAY™ 96-well small spot plate—custom coated with MAB610 containing 100 μL of 2× Read Buffer P supplemented with 0.34 nM AF210NA polyclonal Ab labeled with ruthenium (MSD-Sulfo-TAG™-NHS ester). After an overnight incubation at room temperature with shaking, the reaction was read on the Sector Imager™ 6000. […] The amount of secreted TNF-α in the presence of AMG compounds compared with that in the presence of DMSO vehicle alone (HI control) was calculated using the formula: % control (POC)=(cpd−average LO)/(average HI−averageLO)*100. Data (consisting of POC and inhibitor concentration in μM) was fitted to a 4-parameter equation (y=A+((B−A)/(1+((x/C)^D))), where A is the minimum y (POC) value, B is the maximum y (POC), C is the x (cpd concentration) at the point of inflection and D is the slope factor) using a Levenburg-Marquardt non-linear regression algorithm.

Chain of recombinant human p38α (Q16539 whole entry): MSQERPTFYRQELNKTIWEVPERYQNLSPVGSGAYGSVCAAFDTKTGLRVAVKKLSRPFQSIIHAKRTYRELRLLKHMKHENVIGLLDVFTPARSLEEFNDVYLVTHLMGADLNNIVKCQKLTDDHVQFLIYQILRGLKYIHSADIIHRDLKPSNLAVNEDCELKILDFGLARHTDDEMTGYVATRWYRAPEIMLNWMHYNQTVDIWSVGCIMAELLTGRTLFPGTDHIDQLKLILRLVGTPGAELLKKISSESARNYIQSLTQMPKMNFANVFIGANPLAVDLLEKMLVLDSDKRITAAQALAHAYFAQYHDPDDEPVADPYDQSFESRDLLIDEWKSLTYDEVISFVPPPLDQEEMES

| Molecule | pIC50 [1] | pIC50 ([2]; Homo sapiens) | pIC50 [3] | pIC50 [2] |
| --- | --- | --- | --- | --- |
| Cn1c(=O)c(-c2cc(C#N)ccc2Cl)cc2cnn(-c3c(F)cccc3F)c21 [Example 33, 4-chloro-3-(1-(2,6-difluorophenyl)-7-methyl-6-oxo-6,7-dihydro-1H-pyrazolo[3,4-b]pyridin-5-yl)benzonitrile] |  | ≤ 5.60 |  |  |
| N-cyclopropyl-3-(1-(2,4-difluorophenyl)-7-methyl-6-thioxo-6,7-dihydro-1H-pyrazolo[3,4-b]pyridin-5-yl)-4-methylbenzenecarbothioamide [Example 51] |  |  |  | 6.65 |
| Cc1ccc(N)cc1-c1cc2cnn(-c3ccc(F)cc3F)c2n(C)c1=O [Example 37, 5-(5-amino-2-methylphenyl)-1-(2,4-difluorophenyl)-7-methyl-1,7-dihydro-6H-pyrazolo[3,4-b]pyridin-6-one] |  | 6.49 | ≥ 6.76 |  |
| Cc1ccc(NC(=O)C2CC2)cc1-c1cc2cnn(-c3ccc(F)cc3F)c2n(C)c1=O [Example 16, N-(3-(1-(2,4-difluorophenyl)-7-methyl-6-oxo-6,7-dihydro-1H-pyrazolo[3,4-b]pyridin-5-yl)-4-methylphenyl)cyclopropanecarboxamide] |  | ≥ 7.00 | ≥ 6.76 | 7.13 |
| Cc1ccc(NC(=O)NC2CC2)cc1-c1cc2cnn(-c3c(F)cccc3F)c2n(C)c1=O [Example 36, 1-cyclopropyl-3-(3-(1-(2,6-difluorophenyl)-7-methyl-6-oxo-6,7-dihydro-1H-pyrazolo[3,4-b]pyridin-5-yl)-4-methylphenyl)urea] |  | 6.58 | ≥ 6.76 |  |
| Cc1c(F)cc(C(N)=O)cc1-c1cc2cnn(-c3ccccc3Cl)c2n(C)c1=O [Example 1, 3-(1-(2-chlorophenyl)-7-methyl-6-oxo-6,7-dihydro-1H-pyrazolo[3,4-b]pyridin-5-yl)-5-fluoro-4-methylbenzamide] | 8.64 |  | ≥ 6.76 |  |

The remaining lines, values ahead:

| pIC50 [1] | pIC50 ([2]; Homo sapiens) | pIC50 [3] | pIC50 [2] | Molecule |
| --- | --- | --- | --- | --- |
| 6.15 | ≤ 5.60 |  |  | Cc1ccc(C(=O)O)cc1-c1cc2cnn(-c3c(F)cccc3F)c2n(C)c1=O [Example 38, 3-(1-(2,6-difluorophenyl)-7-methyl-6-oxo-6,7-dihydro-1H-pyrazolo[3,4-b]pyridin-5-yl)-4-methylbenzoic acid] |
|  | ≤ 5.60 |  |  | Cc1ccc(I)cc1-c1cc2cnn(-c3c(F)cccc3F)c2n(C)c1=O [Example 40, 1-(2,6-difluorophenyl)-5-(5-iodo-2-methylphenyl)-7-methyl-1,7-dihydro-6H-pyrazolo[3,4-b]pyridin-6-one] |
|  | ≤ 5.60 | ≥ 6.76 |  | Cn1c(=O)c(-c2cc(C(=O)O)ccc2Cl)cc2cnn(-c3c(F)cccc3F)c21 [Example 42, 4-chloro-3-(1-(2,6-difluorophenyl)-7-methyl-6-oxo-6,7-dihydro-1H-pyrazolo[3,4-b]pyridin-5-yl)benzoic acid] |
|  | 6.18 |  |  | Cc1ccc(C(=O)NC2CC2)cc1-c1cc2cnn(S(=O)(=O)C3CC3)c2n(C)c1=O [Example 47, N-cyclopropyl-3-(1-(cyclopropylsulfonyl)-7-methyl-6-oxo-6,7-dihydro-1H-pyrazolo[3,4-b]pyridin-5-yl)-4-methylbenzamide] |
| 6.00 | ≤ 5.60 | ≥ 6.76 |  | Cc1ccc(C(=O)O)cc1-c1cc2cnn(-c3ccc(F)cc3F)c2n(C)c1=O [Example 41, 3-(1-(2,4-difluorophenyl)-7-methyl-6-oxo-6,7-dihydro-1H-pyrazolo[3,4-b]pyridin-5-yl)-4-methylbenzoic acid] |
| 8.11 | ≤ 5.60 | ≥ 6.76 |  | COc1ccc(C(F)(F)F)cc1NC(=O)c1ccc(C)c(-c2cc3cnn(-c4c(F)cccc4F)c3n(C)c2=O)c1 [Example 45, 3-(1-(2,6-difluorophenyl)-7-methyl-6-oxo-6,7-dihydro-1H-pyrazolo[3,4-b]pyridin-5-yl)-4-methyl-N-(2-(methyloxy)-5-(trifluoromethyl)phenyl)benzamide] |
|  | ≥ 7.00 | ≥ 6.76 | 7.22 | Cc1ccc(N)cc1-c1cc2cnn(-c3c(F)cccc3F)c2n(C)c1=O [Example 39, 5-(5-amino-2-methylphenyl)-1-(2,6-difluorophenyl)-7-methyl-1,7-dihydro-6H-pyrazolo[3,4-b]pyridin-6-one] |
|  | ≤ 5.60 |  |  | Cc1ccc(I)cc1-c1cc2cnn(-c3ccc(F)cc3F)c2n(C)c1=O [Example 43, 1-(2,4-difluorophenyl)-5-(5-iodo-2-methylphenyl)-7-methyl-1,7-dihydro-6H-pyrazolo[3,4-b]pyridin-6-one] |
|  | 6.49 | ≥ 6.76 |  | Cn1c(=O)c(-c2cc(N)ccc2Cl)cc2cnn(-c3c(F)cccc3F)c21 [Example 48, 5-(5-amino-2-chlorophenyl)-1-(2,6-difluorophenyl)-7-methyl-1,7-dihydro-6H-pyrazolo[3,4-b]pyridin-6-one] |
